≈ marks a conversion by molar mass, not a printed value. Calls of active or inactive are those of the source. No cut-off for these calls is given here. Non-standard residues stand in square brackets, D forms with d. Residues, ends and D or L forms follow the SMILES beside them. ξ: configuration not given here. ξY = NC(Cc1ccc(O)cc1)C(=O)O; ξR = N=C(N)NCCCC(N)C(=O)O; ξD = NC(CC(=O)O)C(=O)O; ξN = NC(=O)CC(N)C(=O)O; ξI = CCC(C)C(N)C(=O)O; ξL = CC(C)CC(N)C(=O)O; ξK = NCCCCC(N)C(=O)O; ξV = CC(C)C(N)C(=O)O; ξP = O=C(O)C1CCCN1
What was measured:
Staphylococcus aureus [1] = assay: Antimicrobial activity against methicillin-resistant Staphylococcus aureus COL incubated for 16 to 20 hrs in full muller hinton medium by broth microdilution method; assay type: functional; settings: time 16-20 hrs
[2] = Hemolytic activity in human RBC incubated for 4 hrs; assay type: toxicity, cell-based; settings: erythrocyte
rRNA = assay: Binding affinity to [gamma32 P-ATP] labeled Escherichia coli MG1655 23S ribosomal RNA (5-CCCTTGGGACCTACTTC-3') at U2506 position assessed as increase in band intensity at 1 uM incubated for 2.5 hrs in full muller hinton medium by CMCT based gel electrophoresis; assay type: nucleic-acid assay
Escherichia coli [3] = assay: Bacteriostatic activity against Escherichia coli at 8 times MIC in full muller hinton medium by Time-kill assay; assay type: functional, organism-based
Klebsiella pneumoniae [4] = assay: Bacteriostatic activity against Klebsiella pneumoniae at 8 times MIC in full muller hinton medium by Time-kill assay; assay type: functional, organism-based
Escherichia coli [5] = assay: Bacteriostatic activity against Escherichia coli assessed as detachment of inner membrane from outer membrane by measuring a large void at 8 times MIC in full muller hinton medium by transmission electron microscopic analysis; assay type: functional, organism-based
Klebsiella pneumoniae [6] = assay: Bacteriostatic activity against Klebsiella pneumoniae assessed as detachment of inner membrane from outer membrane by measuring a large void at 8 times MIC in full muller hinton medium by transmission electron microscopic analysis; assay type: functional, organism-based
Escherichia coli [7] = assay: Bacteriostatic activity against Escherichia coli assessed as small intracellular vesicles at 8 times MIC in full muller hinton medium by transmission electron microscopic analysis; assay type: functional, organism-based
Klebsiella pneumoniae [8] = assay: Bacteriostatic activity against Klebsiella pneumoniae assessed as small intracellular vesicles at 8 times MIC in full muller hinton medium by transmission electron microscopic analysis; assay type: functional, organism-based
Escherichia coli [9] = assay: Bacteriostatic activity against Escherichia coli assessed as membrane perturbation at 8 times MIC in full muller hinton medium by transmission electron microscopic analysis; assay type: functional, organism-based
Klebsiella pneumoniae [10] = assay: Bacteriostatic activity against Klebsiella pneumoniae assessed as membrane perturbation at 8 times MIC in full muller hinton medium by transmission electron microscopic analysis; assay type: functional, organism-based
Pseudomonas aeruginosa [11] = assay: Antibacterial activity against multidrug-resistant Pseudomonas aeruginosa PA14 incubated for 16 to 20 hrs in full muller hinton medium by broth microdilution method; assay type: functional; settings: time 16-20 hrs
Pseudomonas aeruginosa [12] = assay: Antibacterial activity against multidrug-resistant Pseudomonas aeruginosa PA14 2P4 harboring pmrB mutant incubated for 16 to 20 hrs in full muller hinton medium by broth microdilution method; assay type: functional; settings: time 16-20 hrs
Pseudomonas aeruginosa [13] = assay: Antibacterial activity against multidrug-resistant Pseudomonas aeruginosa clinical isolate ZEM9A incubated for 16 to 20 hrs in full muller hinton medium by broth microdilution method; assay type: functional; settings: time 16-20 hrs
Lipid bilayer [14] = assay: Induction of membrane disruption in egg yolk phosphatidyl glycerol at 10 ug/ml by measuring vesicle leakage; settings: dose 10.0 µg/ml
Lipid bilayer [15] = assay: Induction of membrane disruption in egg yolk phosphatidyl choline at 10 ug/ml by measuring vesicle leakage; settings: dose 10.0 µg/ml
Pseudomonas aeruginosa [16] = assay: Antimicrobial activity against Pseudomonas aeruginosa PAO1 incubated for 16 to 20 hrs in full muller hinton medium by broth microdilution method; assay type: functional; settings: time 16-20 hrs
Escherichia coli [17] = assay: Antimicrobial activity against Escherichia coli W3110 incubated for 16 to 20 hrs in 12.5 % muller hinton medium by broth microdilution method; assay type: functional; settings: time 16-20 hrs
Acinetobacter baumannii = assay: Antimicrobial activity against Acinetobacter baumannii ATCC 19606 incubated for 16 to 20 hrs in 12.5 % muller hinton medium by broth microdilution method; assay type: functional; settings: time 16-20 hrs
Escherichia coli [18] = assay: Antimicrobial activity against Escherichia coli W3110 incubated for 16 to 20 hrs in full muller hinton medium by broth microdilution method; assay type: functional; settings: time 16-20 hrs
Klebsiella pneumoniae [19] = assay: Antimicrobial activity against Klebsiella pneumoniae NCTC 418 incubated for 16 to 20 hrs in full muller hinton medium by broth microdilution method; assay type: functional; settings: time 16-20 hrs
Klebsiella pneumoniae [20] = assay: Antimicrobial activity against Klebsiella pneumoniae NCTC 418 incubated for 16 to 20 hrs in 12.5 % muller hinton medium by broth microdilution method; assay type: functional; settings: time 16-20 hrs
Pseudomonas aeruginosa [21] = assay: Antimicrobial activity against Pseudomonas aeruginosa PAO1 incubated for 16 to 20 hrs in 12.5 % muller hinton medium by broth microdilution method; assay type: functional; settings: time 16-20 hrs
Staphylococcus aureus [22] = assay: Antimicrobial activity against methicillin-resistant Staphylococcus aureus COL incubated for 16 to 20 hrs in 12.5 % muller hinton medium by broth microdilution method; assay type: functional; settings: time 16-20 hrs
Pseudomonas aeruginosa [23] = assay: Antibacterial activity against multidrug-resistant Pseudomonas aeruginosa PA14 4.13 harboring phoQ mutant incubated for 16 to 20 hrs in full muller hinton medium by broth microdilution method; assay type: functional; settings: time 16-20 hrs
Pseudomonas aeruginosa [24] = assay: Antibacterial activity against multidrug-resistant Pseudomonas aeruginosa PA14 4.18 harboring pmrB mutant incubated for 16 to 20 hrs in full muller hinton medium by broth microdilution method; assay type: functional; settings: time 16-20 hrs
Pseudomonas aeruginosa [25] = assay: Antibacterial activity against multidrug-resistant Pseudomonas aeruginosa clinical isolate ZEM-1A incubated for 16 to 20 hrs in full muller hinton medium by broth microdilution method; assay type: functional; settings: time 16-20 hrs
Pseudomonas aeruginosa [26] = assay: Antibacterial activity against multidrug-resistant Pseudomonas aeruginosa clinical isolate ZEM-1A incubated for 16 to 20 hrs in 12.5 % muller hinton medium by broth microdilution method; assay type: functional; settings: time 16-20 hrs
Klebsiella pneumoniae [27] = assay: Antibacterial activity against multidrug-resistant Klebsiella pneumoniae clinical isolate OXA-48 incubated for 16 to 20 hrs in full muller hinton medium by broth microdilution method; assay type: functional; settings: time 16-20 hrs
Klebsiella pneumoniae [28] = assay: Antibacterial activity against multidrug-resistant Klebsiella pneumoniae clinical isolate OXA-48 incubated for 16 to 20 hrs in 12.5 % muller hinton medium by broth microdilution method; assay type: functional; settings: time 16-20 hrs
Enterobacter cloacae = assay: Antibacterial activity against multidrug-resistant Enterobacter cloacae incubated for 16 to 20 hrs in full muller hinton medium by broth microdilution method; assay type: functional; settings: time 16-20 hrs

Structure (SMILES)	MIC (Staphylococcus aureus [1])	MHC [2]	Activity (rRNA)	MIC (Pseudomonas aeruginosa [11])	MIC (Pseudomonas aeruginosa [12])	MIC (Pseudomonas aeruginosa [13])	MIC (Pseudomonas aeruginosa [16])	MIC (Escherichia coli [17])	MIC (Acinetobacter baumannii)	further results
CCC(C)C(NC(=O)C(CCCNC(=N)N)NC(=O)C(CCCNC(=N)N)NC(=O)C1CCCN1C(=O)C1CCCN1C(=O)C(CCCNC(=N)N)NC(=O)[C@@H]1CCCN1C(=O)[C@H](CCCNC(=N)N)NC(=O)[C@@H]1CCCN1C(=O)[C@H](CC(C)C)NC(=O)[C@H](Cc1ccc(O)cc1)NC(=O)[C@@H]1CCCN1C(=O)[C@@H]1CCCN1C(=O)[C@H](CCCCN)NC(=O)[C@H](CC(=O)O)NC(=O)[C@@H](N)C(C)C)C(=O)NC(Cc1ccc(O)cc1)C(=O)NC(CC(N)=O)C(=O)NC(CCCNC(=N)N)C(N)=O (stereo partly specified) (H-VDKPPYLPRP[ξR][ξP][ξP][ξR][ξR][ξI][ξY][ξN][ξR]-NH2)	> 64 µg/mL	> 1000 µg/mL	Active	> 64 µg/mL	> 64 µg/mL	> 64 µg/mL	–	–	–	Activity (Escherichia coli [3]): Active; Activity (Klebsiella pneumoniae [4]): Active; Activity (Escherichia coli [5]): Active; Activity (Klebsiella pneumoniae [6]): Active; Activity (Escherichia coli [7]): Active; Activity (Klebsiella pneumoniae [8]): Active; Activity (Escherichia coli [9]): Active; Few Membrane Perturbation Observed; Activity (Klebsiella pneumoniae [10]): Active; Few Membrane Perturbation Observed; Activity (Lipid bilayer [14]): Active; Activity (Lipid bilayer [15]): Active
CC[C@H](C)[C@H](NC(=O)[C@H](CCCNC(=N)N)NC(=O)[C@H](CCCNC(=N)N)NC(=O)[C@@H]1CCCN1C(=O)[C@@H]1CCCN1C(=O)[C@H](CCCNC(=N)N)NC(=O)[C@@H]1CCCN1C(=O)[C@H](CCCNC(=N)N)NC(=O)[C@@H]1CCCN1C(=O)[C@H](CC(C)C)NC(=O)[C@H](Cc1ccc(O)cc1)NC(=O)[C@@H]1CCCN1C(=O)[C@@H]1CCCN1C(=O)C(CCCCN)NC(=O)C(CC(=O)O)NC(=O)C(N)C(C)C)C(=O)N[C@@H](Cc1ccc(O)cc1)C(=O)N[C@@H](CC(N)=O)C(=O)N[C@@H](CCCNC(=N)N)C(N)=O (stereo partly specified) (H-[ξV][ξD][ξK]PPYLPRPRPPRRIYNR-NH2)	> 64 µg/mL	> 1000 µg/mL	–	–	–	–	> 64 µg/mL	2 µg/mL (≈ 0.837 µM)	8 µg/mL (≈ 3.35 µM)	–
CCC(C)C(NC(=O)C(CCCNC(=N)N)NC(=O)[C@H](CCCNC(=N)N)NC(=O)[C@@H]1CCCN1C(=O)[C@@H]1CCCN1C(=O)[C@H](CCCNC(=N)N)NC(=O)[C@@H]1CCCN1C(=O)[C@H](CCCNC(=N)N)NC(=O)[C@@H]1CCCN1C(=O)[C@H](CC(C)C)NC(=O)[C@H](Cc1ccc(O)cc1)NC(=O)[C@@H]1CCCN1C(=O)[C@@H]1CCCN1C(=O)C(CCCCN)NC(=O)C(CC(=O)O)NC(=O)C(N)C(C)C)C(=O)NC(Cc1ccc(O)cc1)C(=O)NC(CC(N)=O)C(=O)NC(CCCNC(=N)N)C(N)=O (stereo partly specified) (H-[ξV][ξD][ξK]PPYLPRPRPPR[ξR][ξI][ξY][ξN][ξR]-NH2)	> 64 µg/mL	> 1000 µg/mL	–	–	–	–	> 64 µg/mL	1 µg/mL (≈ 0.418 µM)	4 µg/mL (≈ 1.67 µM)	MIC (Escherichia coli [18]): 8 µg/mL (≈ 3.35 µM)
CC[C@H](C)[C@H](NC(=O)[C@H](CCCNC(=N)N)NC(=O)C(CCCNC(=N)N)NC(=O)C1CCCN1C(=O)C1CCCN1C(=O)C(CCCNC(=N)N)NC(=O)C1CCCN1C(=O)C(CCCNC(=N)N)NC(=O)C1CCCN1C(=O)C(CC(C)C)NC(=O)C(Cc1ccc(O)cc1)NC(=O)C1CCCN1C(=O)C1CCCN1C(=O)C(CCCCN)NC(=O)C(CC(=O)O)NC(=O)C(N)C(C)C)C(=O)N[C@@H](Cc1ccc(O)cc1)C(=O)N[C@@H](CC(N)=O)C(=O)N[C@@H](CCCNC(=N)N)C(N)=O (stereo partly specified) (H-[ξV][ξD][ξK][ξP][ξP][ξY][ξL][ξP][ξR][ξP][ξR][ξP][ξP][ξR]RIYNR-NH2)	> 64 µg/mL	> 1000 µg/mL	inactive	> 64 µg/mL	> 64 µg/mL	> 64 µg/mL	> 64 µg/mL	4 µg/mL (≈ 1.67 µM)	–	MIC (Klebsiella pneumoniae [19]): > 64 µg/mL; MIC (Klebsiella pneumoniae [20]): > 16 µg/mL; MIC (Pseudomonas aeruginosa [21]): > 16 µg/mL; MIC (Staphylococcus aureus [22]): > 64 µg/mL; MIC (Pseudomonas aeruginosa [23]): > 64 µg/mL; MIC (Pseudomonas aeruginosa [24]): > 64 µg/mL; MIC (Pseudomonas aeruginosa [25]): > 64 µg/mL; MIC (Pseudomonas aeruginosa [26]): > 64 µg/mL; MIC (Klebsiella pneumoniae [27]): > 64 µg/mL; MIC (Klebsiella pneumoniae [28]): > 64 µg/mL; MIC (Enterobacter cloacae): > 64 µg/mL

Reference: ChEMBL document CHEMBL6083262, “Stereorandomized Oncocins with Preserved Ribosome Binding and Antibacterial Activity” (J Med Chem, 2024)
